{
  "source": "patent EP0354453A2",
  "about": "“Antimicrobial agent for animals” (priority 1988, dated 1990)",
  "key": {"[1]": {"system": "Bordetella bronchiaseptica OKM-1", "experiment": "in vitro antimicrobial activity (MIC), agar dilution, Part 2", "type": "cell-based", "settings": "Bordetella, OKM1, Bordetella bronchiaseptica OKM-1, Pig; read-out: MIC", "method": "(§1) Test microorganisms listed in Table 2 were cultured overnight in heart infusion nutrient broth (produced by Eiken Chemical Co., Ltd.). Culture broth containing about 10⁸/ml cells was diluted to a volume of 100 times. An aliquot (about 0.05 ml) of the diluted broth was inoculated onto a Mueller Hinton agar plate (produced by Eiken Chemical Co., Ltd.) to which Compound No. 1 was added in a prescribed concentration. […]\n(§2) MIC of Compounds (1)-(8) against various pathogenic bacteria derived from animals was determined in the same manner as in Example 1."}, "[2]": {"system": "Escherichia coli 139", "experiment": "in vitro antimicrobial activity (MIC), agar dilution, Part 2", "type": "cell-based", "settings": "Escherichia coli 139, Cow; read-out: MIC", "method": "as §1, §2"}, "[3]": {"system": "Escherichia coli 881", "experiment": "in vitro antimicrobial activity (MIC), agar dilution, Part 2", "type": "cell-based", "settings": "Escherichia coli, 881, Escherichia coli 881, Pig; read-out: MIC", "method": "as §1, §2"}, "[4]": {"system": "Escherichia coli S6W", "experiment": "in vitro antimicrobial activity (MIC), agar dilution, Part 2", "type": "cell-based", "settings": "Escherichia coli, S6W, Escherichia coli S6W, Chicken; read-out: MIC", "method": "as §1, §2"}, "[5]": {"system": "Pasteurella multocida DB-12-1", "experiment": "in vitro antimicrobial activity (MIC), agar dilution, Part 2", "type": "cell-based", "settings": "DB121; Pasteurella multocida DB-12-1, Pig; read-out: MIC", "method": "as §1, §2"}, "[6]": {"system": "Salmonella typhimurium 103", "experiment": "in vitro antimicrobial activity (MIC), agar dilution, Part 2", "type": "cell-based", "settings": "Salmonella enterica; Salmonella typhimurium 103, Chicken; read-out: MIC", "method": "as §1, §2"}, "[7]": {"system": "Salmonella typhimurium 569", "experiment": "in vitro antimicrobial activity (MIC), agar dilution, Part 2", "type": "cell-based", "settings": "Salmonella enterica, TYPHIMURIUM, Salmonella typhimurium 569, Pig; read-out: MIC", "method": "as §1, §2"}, "[8]": {"system": "Staphylococcus aureus Yamaguchi 6", "experiment": "in vitro antimicrobial activity (MIC), agar dilution, Part 2", "type": "cell-based", "settings": "Staphylococcus aureus Yamaguchi 6, Chicken; read-out: MIC", "method": "as §1, §2"}, "[9]": {"system": "Mycoplasma gallisepticum Strain 2004", "experiment": "in vitro antimicrobial activity (MIC) in Frey liquid medium", "type": "cell-based", "settings": "Mycoplasmoides gallisepticum, STRAIN2004; Mycoplasma gallisepticum Strain 2004, from chicken; Frey liquid medium, 37°C, 3-5 days; read-out: MIC", "method": "(§3) Various test strains of Mycoplasma gallisepticum derived from chicken were cultured in a Frey liquid medium for Mycoplasma for 3 days. The culture broth containing about 10⁸/ml cells was diluted to a volume of 100 times. The diluted broth was inoculated into Frey liquid media for Mycoplasma to which the compounds of this invention were added at prescribed concentrations. The cells were incubated at 37°C for 3-5 days while daily observing the color of the media. Among the culture broths maintaining yellow color at the time when the control to which no test compound was added turned red, the concentration of the broth having the minimum concentration was taken as the MIC of the compound."}, "[10]": {"system": "Mycoplasma gallisepticum Strain 2012", "experiment": "in vitro antimicrobial activity (MIC) in Frey liquid medium", "type": "cell-based", "settings": "Mycoplasmoides gallisepticum, STRAIN2012; Mycoplasma gallisepticum Strain 2012, from chicken; Frey liquid medium, 37°C, 3-5 days; read-out: MIC", "method": "as §3"}, "[11]": {"system": "Mycoplasma gallisepticum Strain DP-1047", "experiment": "in vitro antimicrobial activity (MIC) in Frey liquid medium", "type": "cell-based", "settings": "Mycoplasmoides gallisepticum; Mycoplasma gallisepticum Strain DP-1047, from chicken; Frey liquid medium, 37°C, 3-5 days; read-out: MIC", "method": "as §3"}, "[12]": {"system": "Mycoplasma gallisepticum Strain T-2", "experiment": "in vitro antimicrobial activity (MIC) in Frey liquid medium", "type": "cell-based", "settings": "Mycoplasmoides gallisepticum; Mycoplasma gallisepticum Strain T-2, from chicken; Frey liquid medium, 37°C, 3-5 days; read-out: MIC", "method": "as §3"}, "[13]": {"system": "Mycoplasma gallisepticum Strain T-7", "experiment": "in vitro antimicrobial activity (MIC) in Frey liquid medium", "type": "cell-based", "settings": "Mycoplasmoides gallisepticum, Mycoplasma gallisepticum Strain T-7, from chicken, 37°C, 3-5 days", "method": "as §3"}, "[14]": {"system": "Mycoplasma gallisepticum", "experiment": "Effect of oral administration on chicken inoculated with Mycoplasma gallisepticum", "type": "in vivo", "settings": "for Chickens developing disease in air sac (naked eye observation) / No. of dead chickens: 5 tested chickens", "method": "Mycoplasma gallisepticum cells collected from chickens having respiratory Mycoplasma infection were cultured for 3 days in a Frey liquid media for Mycoplasma. 0.2 ml of this culture broth was injected into the trachea of chickens of an average body weight of 80 g using a 1 ml disposable injection needle. Beginning from the next day following the inoculation, feeds to which Compound (1) had been added in the amount of 100 ppm, 75 ppm, or 50 ppm were freely given to the chickens for 5 days. Following the administration of Compound (1) the chickens were given feed containing no drug for a further 5 days. The surviving chickens were sacrificed and dissected. After examination of the degree of disease in the air sac, Mycoplasma gallisepticum in the infraorbital sinus, trachea, lung, and air sac were determined. […] TABLE 6 […]"}, "[15]": {"experiment": "Acute toxicity test, intravenous injection", "type": "in vivo", "method": "Representative test compounds, Compounds (2) and (3), were intravenously injected to mice. No fatality occurred at a dose of 200 mg/kg (10 mice/group), for Compound (2), and a dose of 200 mg/kg (6 mice/group), for Compound (3). From the results, the LD₅₀ values of the compounds are considered to be greater than 200 mg/kg."}},
  "data": [
    {"compound": "CCN1CCN(c2c(F)cc3c(=O)c(C(=O)O)cn4c3c2OCC4C)CC1", "note": "(racemic) [Compound (2), 3(RS)-9-fluoro-2,3-dihydro-3-methyl-10-(4-ethyl-1-piperazinyl)-7-oxo-7H-pyrido[1,2,3-de] [1,4]benzoxazine-6-carboxylic acid]", "values": [
      {"measurement": "MIC", "setting": "[1]", "value": 0.2, "unit": "µg/mL"},
      {"measurement": "MIC", "setting": "[2]", "value": 0.2, "unit": "µg/mL"},
      {"measurement": "MIC", "setting": "[3]", "value": 0.1, "unit": "µg/mL"},
      {"measurement": "MIC", "setting": "[4]", "value": 0.1, "unit": "µg/mL"},
      {"measurement": "MIC", "setting": "[5]", "value": 0.05, "unit": "µg/mL"},
      {"measurement": "MIC", "setting": "[6]", "value": 0.2, "unit": "µg/mL"},
      {"measurement": "MIC", "setting": "[7]", "value": 0.1, "unit": "µg/mL"},
      {"measurement": "MIC", "setting": "[8]", "value": 0.39, "unit": "µg/mL"},
      {"measurement": "MIC", "setting": "[9]", "value": 0.025, "unit": "µg/mL"},
      {"measurement": "MIC", "setting": "[10]", "value": 0.025, "unit": "µg/mL"},
      {"measurement": "MIC", "setting": "[11]", "value": 0.1, "unit": "µg/mL"},
      {"measurement": "MIC", "setting": "[12]", "value": 0.1, "unit": "µg/mL"},
      {"measurement": "MIC", "setting": "[13]", "value": 0.1, "unit": "µg/mL"},
      {"measurement": "Mycoplasma gallisepticum collected in Air sac", "setting": "[14]; 50 ppm in feed for 5 days", "value": "2.08 Logarithmic number of collected cells per 1 g of tissue"},
      {"measurement": "Mycoplasma gallisepticum collected in Infraorbital sinus", "setting": "[14]; 50 ppm in feed for 5 days", "value": "0/5"},
      {"measurement": "Mycoplasma gallisepticum collected in Lung", "setting": "[14]; 50 ppm in feed for 5 days", "value": "2.43 Logarithmic number of collected cells per 1 g of tissue"},
      {"measurement": "Mycoplasma gallisepticum collected in Trachea", "setting": "[14]; 50 ppm in feed for 5 days", "value": "2.96 Logarithmic number of collected cells per 1 g of tissue"},
      {"measurement": "Chickens developing disease in air sac (naked eye observation)", "setting": "[14]; 50 ppm in feed for 5 days", "value": 0},
      {"measurement": "No. of dead chickens", "setting": "[14]; 50 ppm in feed for 5 days", "value": 0},
      {"measurement": "Mycoplasma gallisepticum collected in Air sac", "setting": "[14]; 75 ppm in feed for 5 days", "value": "0 Logarithmic number of collected cells per 1 g of tissue"},
      {"measurement": "Mycoplasma gallisepticum collected in Infraorbital sinus", "setting": "[14]; 75 ppm in feed for 5 days", "value": "0/5"},
      {"measurement": "Mycoplasma gallisepticum collected in Lung", "setting": "[14]; 75 ppm in feed for 5 days", "value": "0 Logarithmic number of collected cells per 1 g of tissue"},
      {"measurement": "Mycoplasma gallisepticum collected in Trachea", "setting": "[14]; 75 ppm in feed for 5 days", "value": "0 Logarithmic number of collected cells per 1 g of tissue"},
      {"measurement": "Chickens developing disease in air sac (naked eye observation)", "setting": "[14]; 75 ppm in feed for 5 days", "value": 0},
      {"measurement": "No. of dead chickens", "setting": "[14]; 75 ppm in feed for 5 days", "value": 0},
      {"measurement": "Mycoplasma gallisepticum collected in Air sac", "setting": "[14]; 100 ppm in feed for 5 days", "value": "0 Logarithmic number of collected cells per 1 g of tissue"},
      {"measurement": "Mycoplasma gallisepticum collected in Infraorbital sinus", "setting": "[14]; 100 ppm in feed for 5 days", "value": "0/5"},
      {"measurement": "Mycoplasma gallisepticum collected in Lung", "setting": "[14]; 100 ppm in feed for 5 days", "value": "0 Logarithmic number of collected cells per 1 g of tissue"},
      {"measurement": "Mycoplasma gallisepticum collected in Trachea", "setting": "[14]; 100 ppm in feed for 5 days", "value": "0 Logarithmic number of collected cells per 1 g of tissue"},
      {"measurement": "Chickens developing disease in air sac (naked eye observation)", "setting": "[14]; 100 ppm in feed for 5 days", "value": 0},
      {"measurement": "No. of dead chickens", "setting": "[14]; 100 ppm in feed for 5 days", "value": 0},
      {"measurement": "fatality", "setting": "[15]; mice, intravenously injected, dose of 200 mg/kg", "value": "No fatality"},
      {"measurement": "LD50", "setting": "[15]; mouse, in vivo, iv", "value": "> 200", "unit": "mg/kg"}
    ]}
  ]
}
